“And” between values parts separate entries of the source, which are not always exact repeats. Equal values may be shown once. “Also recorded” adds a separate entry of the source.
Experiments:
[1] = Preclinical toxicity profile; type: in vivo
Excerpt: The preclinical toxicity profile of DPI-125 was as expected for an opioid compound, with two positive exceptions.

[2] = target: T1, delta receptor in the mouse vas deferens (Mus musculus, UniProt P32300); test: Mouse vas deferens delta receptor agonism
T1 construct: from tissue; host or cells: mouse vas deferens
T1 sequence (P32300 whole entry): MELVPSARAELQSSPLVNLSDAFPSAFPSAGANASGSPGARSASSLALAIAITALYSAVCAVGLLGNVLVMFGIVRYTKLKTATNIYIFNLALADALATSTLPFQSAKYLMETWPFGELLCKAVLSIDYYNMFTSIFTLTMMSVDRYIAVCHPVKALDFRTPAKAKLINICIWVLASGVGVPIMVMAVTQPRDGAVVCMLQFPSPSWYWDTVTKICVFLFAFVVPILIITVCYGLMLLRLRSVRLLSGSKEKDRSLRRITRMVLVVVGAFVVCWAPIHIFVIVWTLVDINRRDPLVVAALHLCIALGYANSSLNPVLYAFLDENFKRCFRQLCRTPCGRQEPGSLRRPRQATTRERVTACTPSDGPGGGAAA

[3] = Phase 1 study DPI-125.IV.001, safety of single intravenous bolus doses; type: in vivo, human
Description: Given this positive preclinical data, Good Laboratory Practice (GLP) Investigational New Drug (IND) enabling toxicology studies were performed. DPI-125 was tested in human subjects in a PK and safety study. DPI-125.IV.001, was a randomized, single-center, double-blind, placebo-controlled, dose escalating Phase 1 study. The primary objective was to evaluate the safety of single doses of DPI-125 administered by intravenous bolus infusion in normal healthy adult subjects. Male and female subjects between 18 and 55 years of age, inclusive, who were in good health and who were not taking any medications were eligible for enrollment. For each dose group, cohorts of 6 subjects were randomized to receive either placebo (n=1) or DPI-125 for Injection (n=5) as a single bolus dose of 5, 10, 20, or 50 μg/kg administered over 2 minutes. A final cohort received 25 μg/kg administered over 1 minute. For this first in human study, it was decided that 50 μg/kg should be the highest dose to be tested so the maximum tolerated dose was not determined.

[4] = Studies 2 and 3: antinociceptive ED50 in naive and tolerant animals, tail pinch test; type: in vivo, rat; settings: for antinociceptive ED50: s.c.; for antinociceptive ED50 / ED50: 20 min tail pinch; for ED50: Rattus norvegicus, sc, 20 min
[5] = in vivo; settings: rat
[6] = rat, in vivo
[7] = rat, in vivo; remark: listed apart in the source
[8] = target: T2, delta receptor in the mouse brain (Mus musculus, UniProt P32300); test: Mouse brain delta receptor agonism
T2 construct: from tissue; host or cells: mouse brain
T2 sequence (P32300 whole entry): as above

[9] = Study 1: tolerance and cross-tolerance, tail pinch test (MPE); type: in vivo, rat
[10] = healthy adults, single IV bolus 5-50 μg/kg

C=CCN1C[C@H](C)N([C@H](c2ccsc2)c2cccc(O)c2)C[C@H]1C [DPI-125, (−)3-((S)-((2S,5R)-4-allyl-2,5-dimethyl-1-piperazinyl)(3-thienyl)methyl)phenol]
emesis ([1]; even at the highest doses given): did not occur
flushing, reddened mucous membranes or urticaria ([1]; in vivo): did not produce any
delta-opioid agonist activity [2]: acts as a delta-opioid agonist
seizure activity / seizure liability ([3]; EEG, first in human trial): no seizure activity was noted; also recorded: does not have seizure liability
dysphoria as a side effect ([3]; first in human trial): nor does it exhibit dysphoria
corrected QT intervals [3, 10]: No time- or dose-related trends
deaths or serious AEs [3, 10]: no deaths or any other serious AEs reported
most common drug-related AEs [3, 10]: somnolence, dizziness, and paraesthesia
tolerability [3, 10]: well tolerated
antinociceptive ED50 ([4]; DPI-125 tolerant animals): 1.218 mg/kg
Fold Change of ED50 ([4]; DPI-125 tolerant versus naive animals): 2.99 fold and 3.0 fold
ED50 ([4]; DPI-125 tolerant animals): 1.22 mg/kg
ED50 ([4]; morphine tolerant animals): 0.72 mg/kg
ED50 ([4]; naive animals): 0.41 mg/kg
potency in morphine tolerant animals relative to DPI-125 tolerant animals ([4]; more potent in morphine tolerant): 1.7 fold
antinociceptive ED50 ([4]; morphine tolerant animals): 0.717 mg/kg
antinociceptive ED50 ([4]; naive animals): 0.407 mg/kg
ED50 [5]: 0.72 mg/kg
Analgesic ED50 Tail Pinch [6]: 0.050 mg/kg
analgesic potency relative to morphine [6]: > 40 ×
antinociceptive potency relative to morphine [6]: 47 times
Therapeutic Ratio [7]: 14.4
therapeutic index relative to morphine [7]: approximately 7 ×
delta receptor agonist activity [8]: an agonist at the delta receptor
Mean MPE ([9]; DPI-125 tolerant animals, challenge dose 1 (day 7), 30 min): 3.51%
Mean MPE ([9]; DPI-125 tolerant animals, challenge dose 1 (day 7), morphine 5.0 or DPI-125 1.0 mg/kg s.c., 20 min): 8.77%
Mean MPE ([9]; DPI-125 tolerant animals, challenge dose 2 (day 7.25), 20 min): 22.82%
Mean MPE ([9]; DPI-125 tolerant animals, challenge dose 2 (day 7.25), 30 min): 7.90%
Mean MPE ([9]; DPI-125 tolerant animals, challenge dose 3 (day 8), 20 min): 9.65%
Mean MPE ([9]; DPI-125 tolerant animals, challenge dose 3 (day 8), 30 min): 2.63%
Mean MPE ([9]; DPI-125 tolerant animals, challenge dose 4 (day 8.25), 20 min): 1.8±1.8% and 1.76%
Mean MPE ([9]; DPI-125 tolerant animals, challenge dose 4 (day 8.25), 30 min): 0.88%
MPE on Day 1 ([9]; all animals, both dose points and both time points (20 and 30 min)): 100%
time to maximal/complete tolerance ([9]; b.i.d. s.c. dosing, morphine 5.0 mg/kg, DPI-125 1.0 mg/kg): 8 days
Mean MPE ([9]; morphine tolerant animals, challenge dose 1 (day 6), 30 min): 80.7±15.2% and 80.7%
Mean MPE ([9]; morphine tolerant animals, challenge dose 1 (day 6), morphine 5.0 or DPI-125 1.0 mg/kg s.c., 20 min): 64.9%
Mean MPE ([9]; morphine tolerant animals, challenge dose 2 (day 6.25), 20 min): 81.6±12.6% and 81.6%
Mean MPE ([9]; morphine tolerant animals, challenge dose 2 (day 6.25), 30 min): 42.1%
Mean MPE ([9]; morphine tolerant animals, challenge dose 3 (day 7), 20 min): 50.9%
Mean MPE ([9]; morphine tolerant animals, challenge dose 3 (day 7), 30 min): 57.0%
Mean MPE ([9]; morphine tolerant animals, challenge dose 4 (day 7.25), 20 min): 30.7%
Mean MPE ([9]; morphine tolerant animals, challenge dose 4 (day 7.25), 30 min): 26.3%
Mean MPE ([9]; tolerance development, dose 1 (day 1), s.c. BID (morphine 5.0, DPI-125 1.0 mg/kg), 20 minutes post-drug): 100.0%
Mean MPE ([9]; tolerance development, dose 1 (day 1), s.c. BID (morphine 5.0, DPI-125 1.0 mg/kg), 30 minutes post-drug): 100.0%
Mean MPE ([9]; tolerance development, dose 2 (day 1.25), s.c. BID, 20 minutes post-drug): 100.0%
Mean MPE ([9]; tolerance development, dose 2 (day 1.25), s.c. BID, 30 minutes post-drug): 100.0%
Mean MPE ([9]; tolerance development, dose 3 (day 2), s.c. BID, 20 minutes post-drug): 99.1%
Mean MPE ([9]; tolerance development, dose 3 (day 2), s.c. BID, 30 minutes post-drug): 100.0%
Mean MPE ([9]; tolerance development, dose 4 (day 2.25), s.c. BID, 20 minutes post-drug): 79.8%
Mean MPE ([9]; tolerance development, dose 4 (day 2.25), s.c. BID, 30 minutes post-drug): 88.2%
Mean MPE ([9]; tolerance development, dose 5 (day 3), s.c. BID, 20 minutes post-drug): 84.7±10.0% and 84.7%
Mean MPE ([9]; tolerance development, dose 5 (day 3), s.c. BID, 30 minutes post-drug): 66.7±10.9% and 66.7%
Mean MPE ([9]; tolerance development, dose 6 (day 3.25), s.c. BID, 20 minutes post-drug): 81.1%
Mean MPE ([9]; tolerance development, dose 6 (day 3.25), s.c. BID, 30 minutes post-drug): 69.7%
Mean MPE ([9]; tolerance development, dose 7 (day 4), s.c. BID, 20 minutes post-drug): 70.6±12.3% and 70.6%
Mean MPE ([9]; tolerance development, dose 7 (day 4), s.c. BID, 30 minutes post-drug): 72.8%
Mean MPE ([9]; tolerance development, dose 8 (day 4.25), s.c. BID, 20 minutes post-drug): 75.0%
Mean MPE ([9]; tolerance development, dose 8 (day 4.25), s.c. BID, 30 minutes post-drug): 51.3%
Mean MPE ([9]; tolerance development, dose 9 (day 5), s.c. BID, 20 minutes post-drug): 75.9±9.5% and 75.9%
Mean MPE ([9]; tolerance development, dose 9 (day 5), s.c. BID, 30 minutes post-drug): 40.8±11.2% and 40.8%
Mean MPE ([9]; tolerance development, dose 10 (day 5.25), s.c. BID, 20 minutes post-drug): 47.4±11.9% and 47.4%
Mean MPE ([9]; tolerance development, dose 10 (day 5.25), s.c. BID, 30 minutes post-drug): 28.5±9.3% and 28.5%
Mean MPE ([9]; tolerance development, dose 11 (day 6), s.c. BID, 20 minutes post-drug): 34.2±12.5% and 34.2%
Mean MPE ([9]; tolerance development, dose 11 (day 6), s.c. BID, 30 minutes post-drug): 21.1%
Mean MPE ([9]; tolerance development, dose 12 (day 6.25), s.c. BID, 20 minutes post-drug): 37.7±12.7% and 37.7%
Mean MPE ([9]; tolerance development, dose 12 (day 6.25), s.c. BID, 30 minutes post-drug): 11.8±7.9% and 11.8%
antinociceptive effect / tolerance in DPI-125 tolerant animals ([9]; tolerant to 1.0 mg/kg DPI-125 BID, challenge morphine 5.0 or DPI-125 1.0 mg/kg): no antinociceptive effects
antinociceptive effect / tolerance in morphine tolerant animals ([9]; tolerant to 5.0 mg/kg morphine BID, challenge morphine 5.0 or DPI-125 1.0 mg/kg): only partially tolerant; also recorded: significant antinociceptive effects
